Test results published in patent US20130315940A1, “TREATMENT OF LIVER CANCER” (priority 2010, published 2013).
Entries after “also recorded” stand apart in the source; their conditions may differ.

Key:
[1] = test system: Hepatocellular carcinoma; assay: Chloroquine in a rodent model of HCC (DEN and NMOR); type: in vivo, fisher rats; conditions: for animals that developed evidence of hepatocellular carcinoma: Chloroquine 25 mg/kg/day with DEN and NMOR, weeks 8, 10 and 12 pooled
Experimental: 40 five weeks old male fisher rats were studied. They were divided into 2 groups, Group 1 contained 15 rats who were taking DEN and NMOR alone. […] The rats have been given 100 mg/kg DEN (Diethylnitrosamine) (sigma) once intraperitoneal. Nitosomorpholine (NMOR) was been supplied in water with concentration of 80 ppm.
Liver and blood were collected from the animals after 8, 10 and 12 weeks respectively. […] (Table 2)

[2] = test system: HUCCT (cholangiocarcinoma); assay: Cholangiocarcinoma implantation in immunodeficient NOD-SCID mice; type: in vivo; conditions: for tumour size: after 50 days, compared with control, chloroquine 25 mg/kg in water supply (p<0.001), IRS 954 50 μl i.p. once weekly (p<0.01)
Experimental: 12 NOD-SCID mice were injected intrahepatically with 5×10^6 cells of HUCCT (cholangiocarcinoma). […] After 50 days a mass was found subcutaneously.

[3] = test system: HuH7 hepatocellular carcinoma cell line; assay: Cell proliferation in culture (cell counting, Promega proliferation assay), HuH7; type: cell-based; conditions: FIG. 13A, HuH7, in the presence of cpg
From the text: Using different techniques, manual cell counting, nucleo-counter machine and Promega proliferation assay. Using 10^4 […] 96 wells plate treat some of them with cpg (TLR9 stimulator; […] In Huh7, HepG2 and HUCCT

[4] = test system: HCC; assay: Animal model for HCC: DEN and NMOR treated Fisher rats plus norfloxacin; type: in vivo, Fisher rat; conditions: for fibrosis grade: DEN + NMOR + norfloxacin 20 mg/kg per day by gavage, 14 weeks treatment, end at 16th week
Experimental: We chose a Fisher Rat to be our model. We started with 18 Fisher rats, which were 5 weeks old on the beginning of the experiment. We divided them into 3 groups. They were acclimatised for one week before the experiment at room temperature […] and humidity 60%-65%. The first group used 6 Fisher rats as an HCC model. On the day we started we weighed them and determined the exact dose for each rat.
We started with a single dose of DEN (Diethylnitrosamine™, sigma) using 100 mg/kg as single intraperitoneal injection. Then we put NMOR (Nitrosomorpholine™, Sigma) in the concentration of 80 ppm in the water for 14 weeks. The second group, another 6 Fisher rats, got the same HCC model treatment (DEN and NMOR) plus we gavaged them with norfloxacin in the dose of 20 mg/kg per day. The third group, at the same time, was 6 rats with a control of just plain water. We weighed them every other day and stopped treatment on the 14th week, then left them for two more weeks until the 16th week. We noticed the two groups who took the DEN and NMOR didn't increase in weight at the same rate as the control.
When we started our experiment the rats average weights were 212-241 g in the 1st group, 225-260 g and 221-249 g in the 2nd and 3rd groups respectively. At the end of experiment for the groups that took the carcinogenecic treatment average weights were 328-353 g and 330-372 g respectively. For the control group the average weight was 430-478 g. […] Control group: Smooth bright outer surface of the liver.

SMILES | animals that developed evidence of hepatocellular carcinoma ([1]; untreated group 8/9, p<0.0001) | animals that developed evidence of hepatocellular carcinoma ([1]; untreated group 89%) [%] | microscopic and macroscopic appearance of hepatocellular carcinoma ([1]; FIG. 10, DEN and NMOR group administered chloroquine) | HCC in Chloroquine treated ([1]; Week 8th, DEN & NMOR alone 2/3) | HCC in Chloroquine treated ([1]; Week 10th, DEN & NMOR alone 3/3) | HCC in Chloroquine treated ([1]; Week 12th, DEN & NMOR alone 3/3) | size of the nodules ([2]; FIG. 11B, compared with controls) | tumour size [2] | tumour size ([2]; listed as chloroquine) | inhibition of cpg associated proliferation [3] | fibrosis grade [4] | fibrosis grade ([4]; listed as Norfloxacin) | HCC development / tumour grade ([4]; DEN + NMOR + norfloxacin group (2nd group)) | liver nodules ([4]; DEN, NMOR and Norfloxacin group versus DEN and NMOR group)
CCN(CC)CCCC(C)Nc1ccnc2cc(Cl)ccc12 (centres unmarked) [Chloroquine] | 1/10 | 10 | not seen; also recorded: no cancer was apparent either microscopically or macroscopically | 1/4 | 0/3 | 0/3 | significantly smaller | significant reduction | significantly less | significantly inhibited |  |  |  | 
CCn1cc(C(=O)O)c(=O)c2cc(F)c(N3CCNCC3)cc21 [norfloxacin] |  |  |  |  |  |  |  |  |  |  | 0-2 | minimal fibrosis | developed well-differentiated HCC except one | less nodules than the first group
